ChEMBL document CHEMBL4715817, “Python Cathelicidin CATHPb1 Protects against Multidrug-Resistant Staphylococcal Infections by Antimicrobial-Immunomodulatory Duality” (J Med Chem, 2018)
Activity calls are given as the source filed them. No cut-off for these calls is given here. Peptide text beside a SMILES is read from it.

How the values were obtained:
Staphylococcus aureus = test: In vivo antibacterial activity against methicillin sensitive Staphylococcus aureus ATCC 25923 infected in kunming mouse assessed as increase in survival rate at 10 mg/kg, ip administered 4 hrs after infection and measured up to 7 days after infection relative to control; assay type: functional; details: time day <=7
Macrophage [1] = test: Immunomodulatory activity in mouse peritoneal macrophage assessed as inhibition of LPS-induced IL-1beta level at 20 ug/ml measured after 6 hrs by qRT-PCR analysis; assay type: functional, tissue-based; details: dose 20.0 µg/ml
Macrophage [2] = test: Immunomodulatory activity in mouse peritoneal macrophage assessed as inhibition of LPS-induced TNF-alpha level at 20 ug/ml measured after 24 hrs by ELISA; assay type: functional, tissue-based; details: dose 20.0 µg/ml
Macrophage [3] = test: Immunomodulatory activity in mouse peritoneal macrophage assessed as inhibition of LPS-induced IL-6 level at 20 ug/ml measured after 6 hrs by qRT-PCR analysis; assay type: functional, tissue-based; details: dose 20.0 µg/ml
Macrophage [4] = test: Immunomodulatory activity in mouse peritoneal macrophage assessed as inhibition of LPS-induced IL-1beta level at 20 ug/ml measured after 24 hrs by ELISA; assay type: functional, tissue-based; details: dose 20.0 µg/ml
Macrophage [5] = test: Immunomodulatory activity in mouse peritoneal macrophage assessed as inhibition of LPS-induced TNF-alpha level at 20 ug/ml measured after 6 hrs by qRT-PCR analysis; assay type: functional, tissue-based; details: dose 20.0 µg/ml
Macrophage [6] = test: Immunomodulatory activity in mouse peritoneal macrophage assessed as inhibition of LPS-induced IL-6 level at 20 ug/ml measured after 24 hrs by ELISA; assay type: functional, tissue-based; details: dose 20.0 µg/ml
Macrophage [7] = test: Immunomodulatory activity in mouse peritoneal macrophage assessed as inhibition of LPS-induced IL-6 level at 5 to 20 ug/ml measured after 6 hrs by qRT-PCR analysis; assay type: functional, tissue-based; details: dose 5-20 µg/ml
Macrophage [8] = test: Immunomodulatory activity in mouse peritoneal macrophage assessed as inhibition of LPS-induced TNF-alpha level at 5 to 20 ug/ml measured after 6 hrs by qRT-PCR analysis; assay type: functional, tissue-based; details: dose 5-20 µg/ml
Macrophage [9] = test: Immunomodulatory activity in mouse peritoneal macrophage assessed as inhibition of LPS-induced TNF-alpha level at 5 to 20 ug/ml measured after 24 hrs by ELISA; assay type: functional, tissue-based; details: dose 5-20 µg/ml
Macrophage [10] = test: Immunomodulatory activity in mouse peritoneal macrophage assessed as inhibition of LPS-induced MCP-1 level at 5 to 20 ug/ml measured after 24 hrs by ELISA; assay type: functional, tissue-based; details: dose 5-20 µg/ml
Macrophage [11] = test: Immunomodulatory activity in mouse peritoneal macrophage assessed as inhibition of LPS-induced IL-6 level at 5 to 20 ug/ml measured after 24 hrs by ELISA; assay type: functional, tissue-based; details: dose 5-20 µg/ml
Macrophage [12] = test: Immunomodulatory activity in mouse peritoneal macrophage assessed as inhibition of LPS-induced IL-1beta level at 5 to 20 ug/ml measured after 24 hrs by ELISA; assay type: functional, tissue-based; details: dose 5-20 µg/ml
Macrophage [13] = test: Immunomodulatory activity in mouse peritoneal macrophage assessed as inhibition of LPS-induced MCP-1 level at 5 to 20 ug/ml measured after 6 hrs by qRT-PCR analysis; assay type: functional, tissue-based; details: dose 5-20 µg/ml
Macrophage [14] = test: Immunomodulatory activity in mouse peritoneal macrophage assessed as inhibition of LPS-induced IL-1beta level at 5 to 20 ug/ml measured after 6 hrs by qRT-PCR analysis; assay type: functional, tissue-based; details: dose 5-20 µg/ml
[15] = Immunomodulatory activity in mouse peritoneal macrophage assessed as inhibition of LPS-induced IL-6 level measured after 24 hrs by ELISA; assay type: functional; set-up: scale not given: the % may be the effect or the level left; details: dose 5-20 µg/ml, at 5 to 20 µg/mL

Structure (SMILES)	Activity (Staphylococcus aureus)	inhibition (Macrophage [1])	inhibition (Macrophage [2])	inhibition (Macrophage [3])	inhibition (Macrophage [4])	inhibition (Macrophage [5])	inhibition (Macrophage [6])	inhibition (Macrophage [7])	inhibition (Macrophage [8])	inhibition (Macrophage [9])	inhibition (Macrophage [10])	inhibition (Macrophage [11])	inhibition (Macrophage [12])	inhibition (Macrophage [13])	inhibition (Macrophage [14])	Activity [15]
CN[C@H](CC(C)C)C(=O)N[C@H]1C(=O)N[C@@H](CC(N)=O)C(=O)N[C@H]2C(=O)N[C@H]3C(=O)N[C@H](C(=O)N[C@H](C(=O)O)c4cc(O)cc(O)c4-c4cc3ccc4O)[C@H](O)c3ccc(c(Cl)c3)Oc3cc2cc(c3O[C@@H]2O[C@H](CO)[C@@H](O)[C@H](O)[C@H]2O[C@H]2C[C@](C)(N)[C@H](O)[C@H](C)O2)Oc2ccc(cc2Cl)[C@H]1O [VANCOMYCIN]	35%															
CSCC[C@H](NC(=O)[C@H](C)NC(=O)[C@H](CCCNC(=N)N)NC(=O)[C@H](CC(C)C)NC(=O)[C@H](CCCNC(=N)N)NC(=O)[C@H](CCCNC(=N)N)NC(=O)[C@H](CCC(N)=O)NC(=O)[C@@H]1CCCN1C(=O)[C@H](C)NC(=O)[C@H](C)NC(=O)[C@@H](N)CCCNC(=N)N)C(=O)N[C@@H](C)C(=O)N[C@@H](CCCNC(=N)N)C(=O)N[C@@H](CC(C)C)C(=O)N[C@@H](CCCCN)C(=O)N[C@@H](CCCCN)C(=O)N[C@@H](Cc1ccccc1)C(=O)N[C@@H](C)C(=O)N[C@@H](CCC(=O)O)C(=O)N[C@@H](C)C(=O)NCC(=O)NCC(=O)N[C@@H](C)C(=O)N[C@@H](CC(=O)O)C(=O)N1CCC[C@H]1C(=O)N[C@@H](CC(=O)O)C(=O)N[C@@H](CO)C(=O)NCC(=O)NCC(=O)N[C@@H](CC(C)C)C(=O)N[C@@H](CCCNC(=N)N)C(=O)N[C@@H](C)C(=O)N[C@@H](CCCNC(=N)N)C(=O)N[C@@H](Cc1ccccc1)C(=O)N1CCC[C@H]1C(=O)N[C@@H](CCC(=O)O)C(=O)N[C@@H](CCCNC(=N)N)C(=O)O (H-RAAPQRRLRAMARLKKFAEAGGADPDSGGLRARFPER-OH)		Active	Active	Active	Active	Active	Active									
CC[C@H](C)[C@H](NC(=O)[C@H](CO)NC(=O)[C@H](CO)NC(=O)CNC(=O)CNC(=O)CNC(=O)[C@H](C)NC(=O)[C@H](Cc1ccccc1)NC(=O)[C@H](Cc1ccccc1)NC(=O)[C@H](CCCCN)NC(=O)[C@H](CCCCN)NC(=O)[C@H](CC(C)C)NC(=O)[C@H](CCCNC(=N)N)NC(=O)[C@H](CCCNC(=N)N)NC(=O)[C@H](CCSC)NC(=O)[C@H](Cc1ccccc1)NC(=O)[C@H](CCCCN)NC(=O)[C@H](CCCNC(=N)N)NC(=O)[C@H](Cc1ccccc1)NC(=O)CNC(=O)[C@H](CC(N)=O)NC(=O)[C@H](CCCNC(=N)N)NC(=O)[C@@H](N)CCCCN)C(=O)N[C@@H](C)C(=O)N[C@@H](Cc1cnc[nH]1)C(=O)N[C@H](C(=O)N[C@@H](CCCCN)C(=O)N[C@@H](CC(C)C)C(=O)N[C@@H](Cc1cnc[nH]1)C(=O)O)[C@@H](C)CC (H-KRNGFRKFMRRLKKFFAGGGSSIAHIKLH-OH)								Active	Active	Active	Active	Active	Active	Active	Active	
CC[C@H](C)[C@H](NC(=O)[C@H](CCCNC(=N)N)NC(=O)[C@H](Cc1c[nH]c2ccccc12)NC(=O)CNC(=O)[C@H](Cc1ccc(O)cc1)NC(=O)[C@H](CCCNC(=N)N)NC(=O)[C@H](CCCNC(=N)N)NC(=O)[C@H](C)NC(=O)[C@H](Cc1ccccc1)NC(=O)[C@H](CCCNC(=N)N)NC(=O)CNC(=O)[C@H](C)NC(=O)CNC(=O)[C@H](CCCNC(=N)N)NC(=O)[C@@H](NC(=O)[C@H](Cc1ccccc1)NC(=O)[C@H](CCCNC(=N)N)NC(=O)[C@H](CCCNC(=N)N)NC(=O)[C@H](Cc1c[nH]c2ccccc12)NC(=O)[C@H](CCCNC(=N)N)NC(=O)[C@H](CO)NC(=O)[C@H](CCCNC(=N)N)NC(=O)[C@@H](N)[C@@H](C)O)[C@@H](C)CC)C(=O)N[C@@H](C)C(=O)N[C@@H](CC(C)C)C(=O)NCC(=O)N[C@@H](CC(C)C)C(=O)N[C@H](C(=O)NCC(=O)O)C(C)C (H-TRSRWRRFIRGAGRFARRYGWRIALGLVG-OH)								Active	Active	Active	Active	Active	Active	Active	Active	65.59%
